From US9539260B2, “Dihydro-benzo-oxazine and dihydro-pyrido-oxazine derivatives” (Novartis AG, priority 2012, dated 2017)

Key:
[1] = molecular target: PI3K alpha (Homo sapiens (Human), UniProt P42336); test: Enzymatic PI3K alpha isoform inhibition (lipid kinase activity, Kinase-Glo luminescence); type: biochemical; details: Enzymatic assay
Outline: (§1)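 ATP-depletion format: 10 nM PI3K with 5 μg/mL phosphatidylinositol and 2 μM ATP, run to ~50% ATP consumption, then Kinase-Glo added and remaining ATP read by luminescence after 5 min. IC50 from 4-parameter logistic fit, typically over 8 concentrations 10–0.003 μM.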

[2] = molecular target: PI3K delta (Homo sapiens (Human), UniProt O00329); test: Enzymatic PI3K delta isoform inhibition (lipid kinase activity, Kinase-Glo luminescence); type: biochemical; details: Enzymatic assay
Outline: as §1

PI3K alpha, sequence (P42336 other isoform, or with tags, fused parts or gaps): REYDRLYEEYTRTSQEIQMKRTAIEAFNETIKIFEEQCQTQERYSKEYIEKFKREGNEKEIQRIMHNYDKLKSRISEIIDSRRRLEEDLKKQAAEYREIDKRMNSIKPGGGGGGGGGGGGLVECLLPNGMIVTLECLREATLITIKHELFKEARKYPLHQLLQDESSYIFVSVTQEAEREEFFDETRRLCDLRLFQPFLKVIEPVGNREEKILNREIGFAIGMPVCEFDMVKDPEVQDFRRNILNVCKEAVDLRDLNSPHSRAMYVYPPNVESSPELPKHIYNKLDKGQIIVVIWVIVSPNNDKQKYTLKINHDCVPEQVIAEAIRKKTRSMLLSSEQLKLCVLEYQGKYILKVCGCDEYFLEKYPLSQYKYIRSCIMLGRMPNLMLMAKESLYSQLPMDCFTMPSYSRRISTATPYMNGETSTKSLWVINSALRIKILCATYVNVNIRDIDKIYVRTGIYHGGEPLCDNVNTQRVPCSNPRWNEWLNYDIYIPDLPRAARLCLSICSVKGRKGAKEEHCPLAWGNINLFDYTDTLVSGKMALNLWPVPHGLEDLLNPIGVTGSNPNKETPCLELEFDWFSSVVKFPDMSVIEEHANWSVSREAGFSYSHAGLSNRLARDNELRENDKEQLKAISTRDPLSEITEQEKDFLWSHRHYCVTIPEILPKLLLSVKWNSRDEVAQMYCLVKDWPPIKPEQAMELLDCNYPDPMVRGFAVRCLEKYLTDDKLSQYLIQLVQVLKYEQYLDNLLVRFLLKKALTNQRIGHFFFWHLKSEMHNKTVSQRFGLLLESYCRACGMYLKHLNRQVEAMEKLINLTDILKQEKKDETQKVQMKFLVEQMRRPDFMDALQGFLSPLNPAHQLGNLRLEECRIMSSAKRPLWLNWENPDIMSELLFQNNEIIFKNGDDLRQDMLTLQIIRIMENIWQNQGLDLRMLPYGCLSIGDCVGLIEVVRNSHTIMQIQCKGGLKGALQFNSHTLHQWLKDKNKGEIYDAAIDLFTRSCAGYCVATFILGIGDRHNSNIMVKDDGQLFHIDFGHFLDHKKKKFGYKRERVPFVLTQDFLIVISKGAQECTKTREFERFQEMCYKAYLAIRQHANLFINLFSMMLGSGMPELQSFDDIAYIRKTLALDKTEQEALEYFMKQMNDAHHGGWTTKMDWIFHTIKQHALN
PI3K delta, sequence (O00329 other isoform, or with tags, fused parts or gaps linker GGGGGG): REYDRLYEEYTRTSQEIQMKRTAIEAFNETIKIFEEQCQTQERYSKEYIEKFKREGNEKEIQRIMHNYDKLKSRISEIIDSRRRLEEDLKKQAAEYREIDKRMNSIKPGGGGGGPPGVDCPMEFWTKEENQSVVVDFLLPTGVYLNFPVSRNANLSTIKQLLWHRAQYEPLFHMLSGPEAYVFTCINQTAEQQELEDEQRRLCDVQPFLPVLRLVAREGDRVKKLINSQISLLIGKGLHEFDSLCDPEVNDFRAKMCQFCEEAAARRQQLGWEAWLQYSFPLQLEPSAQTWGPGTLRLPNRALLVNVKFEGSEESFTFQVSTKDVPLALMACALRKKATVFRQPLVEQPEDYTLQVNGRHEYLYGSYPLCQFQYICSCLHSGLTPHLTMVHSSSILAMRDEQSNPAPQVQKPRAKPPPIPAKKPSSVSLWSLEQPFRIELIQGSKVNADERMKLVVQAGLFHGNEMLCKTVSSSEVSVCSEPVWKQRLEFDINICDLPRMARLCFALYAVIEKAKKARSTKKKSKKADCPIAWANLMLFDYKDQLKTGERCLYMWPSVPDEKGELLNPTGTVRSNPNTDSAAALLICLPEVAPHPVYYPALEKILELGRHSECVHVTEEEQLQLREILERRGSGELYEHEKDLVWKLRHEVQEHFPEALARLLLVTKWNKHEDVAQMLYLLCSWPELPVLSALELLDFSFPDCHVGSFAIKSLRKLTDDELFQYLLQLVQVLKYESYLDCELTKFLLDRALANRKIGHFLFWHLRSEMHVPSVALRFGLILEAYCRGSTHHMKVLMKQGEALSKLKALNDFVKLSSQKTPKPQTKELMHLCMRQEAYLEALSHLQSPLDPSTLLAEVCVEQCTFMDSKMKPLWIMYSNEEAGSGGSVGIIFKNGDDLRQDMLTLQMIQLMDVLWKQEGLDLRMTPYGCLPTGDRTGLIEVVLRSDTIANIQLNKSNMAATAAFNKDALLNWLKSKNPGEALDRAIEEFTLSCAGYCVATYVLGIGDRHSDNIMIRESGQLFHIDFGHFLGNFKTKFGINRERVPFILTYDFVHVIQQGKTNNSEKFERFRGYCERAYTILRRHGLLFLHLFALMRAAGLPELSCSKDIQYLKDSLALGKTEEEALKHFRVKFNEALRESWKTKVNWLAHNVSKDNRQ

| Compound | IC50 [1] [nM] | IC50 [2] [nM] |
| --- | --- | --- |
| Cc1cc(N2CCOc3ccc(O[C@H]4CCN(C(=O)C5CCOC5)C4)cc32)cnc1S(C)(=O)=O (stereo partly drawn) [Example B31, {(S)-3-[4-(6-Methanesulfonyl-5-methyl-pyridin-3-yl)-3,4-dihydro-2H-benzo[1,4]oxazin-6-yloxy]-pyrrolidin-1-yl}-(tetrahydro-furan-3-yl)-methanone] | 977 | 3 |
| COCC(=O)N1CC[C@H](Oc2ccc3c(c2)N(c2cnc(S(C)(=O)=O)c(C)c2)CCO3)C1 [Example B32, 1-{(S)-3-[4-(6-Methanesulfonyl-5-methyl-pyridin-3-yl)-3,4-dihydro-2H-benzo[1,4]oxazin-6-yloxy]-pyrrolidin-1-yl}-2-methoxy-ethanone] | 369 | 36 |
| Cc1cc(N2CCOc3ccc(O[C@H]4CCN(C(=O)C(C)C)C4)cc32)cnc1S(C)(=O)=O [Example B33, 1-{(S)-3-[4-(6-Methanesulfonyl-5-methyl-pyridin-3-yl)-3,4-dihydro-2H-benzo[1,4]oxazin-6-yloxy]-pyrrolidin-1-yl}-2-methyl-propan-1-one] | 610 | < 9 |
| Cc1cc(N2CCOc3ccc(O[C@H]4CCN(C(=O)c5ccccc5)C4)cc32)cnc1S(C)(=O)=O [Example B34, {(S)-3-[4-(6-Methanesulfonyl-5-methyl-pyridin-3-yl)-3,4-dihydro-2H-benzo[1,4]oxazin-6-yloxy]-pyrrolidin-1-yl}-phenyl-methanone] | 795 | 46 |
| Cc1cc(N2CCOc3ccc(O[C@H]4CCN(C(=O)C5CCS(=O)(=O)C5)C4)cc32)cnc1S(C)(=O)=O (stereo partly drawn) [Example B35, (1,1-Dioxo-tetrahydro-1lambda*6*-thiophen-3-yl)-{(S)-3-[4-(6-methanesulfonyl-5-methyl-pyridin-3-yl)-3,4-dihydro-2H-benzo[1,4]oxazin-6-yloxy]-pyrrolidin-1-yl}-methanone] | 1390 | 27 |
| Cc1cc(N2CCOc3ccc(O[C@H]4CCN(C(=O)C5COCCO5)C4)cc32)cnc1S(C)(=O)=O (stereo partly drawn) [Example B36, [1,4]Dioxan-2-yl-{(S)-3-[4-(6-methanesulfonyl-5-methyl-pyridin-3-yl)-3,4-dihydro-2H-benzo[1,4]oxazin-6-yloxy]-pyrrolidin-1-yl}-methanone] | 801 | < 3 |
| COCCC(=O)N1CC[C@H](Oc2ccc3c(c2)N(c2cnc(S(C)(=O)=O)c(C)c2)CCO3)C1 [Example B37, 1-{(S)-3-[4-(6-Methanesulfonyl-5-methyl-pyridin-3-yl)-3,4-dihydro-2H-benzo[1,4]oxazin-6-yloxy]-pyrrolidin-1-yl}-3-methoxy-propan-1-one] | 1100 | 103 |
| COc1cc(N2CCOc3ccc(O[C@H]4CCN(C(=O)C5CCOCC5)C4)cc32)cnc1OC [Example B38, {(S)-3-[4-(5,6-Dimethoxy-pyridin-3-yl)-3,4-dihydro-2H-benzo[1,4]oxazin-6-yloxy]-pyrrolidin-1-yl}-(tetrahydro-pyran-4-yl)-methanone] | 166 | 3 |
| COc1cc(N2CCOc3ccc(O[C@H]4CCN(C(=O)C5COCCO5)C4)cc32)cnc1OC (stereo partly drawn) [Example B39, {(S)-3-[4-(5,6-Dimethoxy-pyridin-3-yl)-3,4-dihydro-2H-benzo[1,4]oxazin-6-yloxy]-pyrrolidin-1-yl}-[1,4]dioxan-2-yl-methanone] | 176 | 11 |
| COc1cc(N2CCOc3ccc(O[C@H]4CCN(C(=O)C5CCOC5)C4)cc32)cnc1OC (stereo partly drawn) [Example B40, {(S)-3-[4-(5,6-Dimethoxy-pyridin-3-yl)-3,4-dihydro-2H-benzo[1,4]oxazin-6-yloxy]-pyrrolidin-1-yl}-(tetrahydro-furan-3-yl)-methanone] | 249 | 12 |
| COc1cc(N2CCOc3ccc(O[C@H]4CCN(C(=O)C5CCS(=O)(=O)C5)C4)cc32)cnc1OC (stereo partly drawn) [Example B41, {(S)-3-[4-(5,6-Dimethoxy-pyridin-3-yl)-3,4-dihydro-2H-benzo[1,4]oxazin-6-yloxy]-pyrrolidin-1-yl}-(1,1-dioxo-tetrahydro-1lambda*6*-thiophen-3-yl)-methanone] | 421 | 25 |
| Cc1cc(N2CCOc3ccc(O[C@H]4CCN(C(=O)C5CCCOC5)C4)cc32)cnc1S(C)(=O)=O (stereo partly drawn) [Example B42, {(S)-3-[4-(6-Methanesulfonyl-5-methyl-pyridin-3-yl)-3,4-dihydro-2H-benzo[1,4]oxazin-6-yloxy]-pyrrolidin-1-yl}-(tetrahydro-pyran-3-yl)-methanone] | 502 | 33 |
| COc1cc(N2CCOc3ccc(O[C@H]4CCN(C(=O)C5CCCOC5)C4)cc32)cnc1OC (stereo partly drawn) [Example B43, {(S)-3-[4-(5,6-Dimethoxy-pyridin-3-yl)-3,4-dihydro-2H-benzo[1,4]oxazin-6-yloxy]-pyrrolidin-1-yl}-(tetrahydro-pyran-3-yl)-methanone] | 514 | 57 |
| COCC(=O)N1CC[C@H](Oc2ccc3c(c2)N(c2cnc(OC)c(OC)c2)CCO3)C1 [Example B44, 1-{(S)-3-[4-(5,6-Dimethoxy-pyridin-3-yl)-3,4-dihydro-2H-benzo[1,4]oxazin-6-yloxy]-pyrrolidin-1-yl}-2-methoxy-ethanone] | 71 | 22 |
| COc1cc(N2CCOc3ccc(O[C@H]4CCN(C(=O)CCS(C)(=O)=O)C4)cc32)cnc1OC [Example B45, 1-{(S)-3-[4-(5,6-Dimethoxy-pyridin-3-yl)-3,4-dihydro-2H-benzo[1,4]oxazin-6-yloxy]-pyrrolidin-1-yl}-3-methanesulfonyl-propan-1-one] | 574 | 74.5 |
| COCCC(=O)N1CC[C@H](Oc2ccc3c(c2)N(c2cnc(OC)c(OC)c2)CCO3)C1 [Example B46, 1-{(S)-3-[4-(5,6-Dimethoxy-pyridin-3-yl)-3,4-dihydro-2H-benzo[1,4]oxazin-6-yloxy]-pyrrolidin-1-yl}-3-methoxy-propan-1-one] | 2080 | 226 |
| COc1cc(N2CCOc3ccc(O[C@H]4CCN(C(=O)C5CCS(=O)(=O)CC5)C4)cc32)cnc1OC [Example B47, {(S)-3-[4-(5,6-Dimethoxy-pyridin-3-yl)-3,4-dihydro-2H-benzo[1,4]oxazin-6-yloxy]-pyrrolidin-1-yl}-(1,1-dioxo-hexahydro-1lambda*6*-thiopyran-4-yl)-methanone] | 241 | 10.7 |
| COc1cc(N2CCOc3ccc(O[C@H]4CCN(C(=O)c5cn(C)cn5)C4)cc32)cnc1OC [Example B48, {(S)-3-[4-(5,6-Dimethoxy-pyridin-3-yl)-3,4-dihydro-2H-benzo[1,4]oxazin-6-yloxy]-pyrrolidin-1-yl}-(1-methyl-1H-imidazol-4-yl)-methanone] | 109 | 7 |
| Cc1cc(N2CCOc3ccc(O[C@H]4CCN(C(=O)C5CCCCC5)C4)cc32)cnc1S(C)(=O)=O [Example B49, Cyclohexyl-{(S)-3-[4-(6-methanesulfonyl-5-methyl-pyridin-3-yl)-3,4-dihydro-2H-benzo[1,4]oxazin-6-yloxy]-pyrrolidin-1-yl}-methanone] | 450 | 7 |
| Cc1cc(N2CCOc3ccc(O[C@H]4CCN(C(=O)[C@H]5CC[C@H](O)CC5)C4)cc32)cnc1S(C)(=O)=O [Example B50, (4-Hydroxy-cyclohexyl)-{(S)-3-[4-(6-methanesulfonyl-5-methyl-pyridin-3-yl)-3,4-dihydro-2H-benzo[1,4]oxazin-6-yloxy]-pyrrolidin-1-yl}-methanone] | 933 | 13 |
| Cc1cc(N2CCOc3ccc(O[C@H]4CCN(C(=O)[C@H]5CC[C@@H](O)CC5)C4)cc32)cnc1S(C)(=O)=O [Example B51, (4-Hydroxy-cyclohexyl)-{(S)-3-[4-(6-methanesulfonyl-5-methyl-pyridin-3-yl)-3,4-dihydro-2H-benzo[1,4]oxazin-6-yloxy]-pyrrolidin-1-yl}-methanone] | 1030 | 10 |
| Cc1cc(N2CCOc3ccc(O[C@H]4CCN(C(=O)C5CCOC5)C4)cc32)cnc1S(C)(=O)=O (stereo partly drawn) [Example B52, {(S)-3-[4-(6-Methanesulfonyl-5-methyl-pyridin-3-yl)-3,4-dihydro-2H-benzo[1,4]oxazin-6-yloxy]-pyrrolidin-1-yl}-(tetrahydro-furan-3-yl)-methanone] | 556 | < 3 |
| Cc1cc(N2CCOc3ccc(O[C@H]4CCN(C(=O)C5CCOC5)C4)cc32)cnc1S(C)(=O)=O (stereo partly drawn) [Example B53, {(S)-3-[4-(6-Methanesulfonyl-5-methyl-pyridin-3-yl)-3,4-dihydro-2H-benzo[1,4]oxazin-6-yloxy]-pyrrolidin-1-yl}-(tetrahydro-furan-3-yl)-methanone] | 343 | 4.5 |
| COc1cc(N2CCOc3ccc(O[C@H]4CCN(C(=O)C5CCOCC5)C4)cc32)cnc1Cl [Example B54, {(S)-3-[4-(6-Chloro-5-methoxy-pyridin-3-yl)-3,4-dihydro-2H-benzo[1,4]oxazin-6-yloxy]-pyrrolidin-1-yl}-(tetrahydro-pyran-4-yl)-methanone] | 756 | 11 |
| CCC(=O)N1CC[C@H](Oc2ccc3c(c2)N(c2cnc(Cl)c(OC)c2)CCO3)C1 [Example B55, 1-{(S)-3-[4-(6-Chloro-5-methoxy-pyridin-3-yl)-3,4-dihydro-2H-benzo[1,4]oxazin-6-yloxy]-pyrrolidin-1-yl}-propan-1-one] | 3850 | 65 |
| COc1cc(N2CCOc3ccc(O[C@H]4CCN(C(=O)C5CCS(=O)(=O)CC5)C4)cc32)cnc1Cl [Example B56, {(S)-3-[4-(6-Chloro-5-methoxy-pyridin-3-yl)-3,4-dihydro-2H-benzo[1,4]oxazin-6-yloxy]-pyrrolidin-1-yl}-(1,1-dioxo-hexahydro-1lambda*6*-thiopyran-4-yl)-methanone] | 1420 | 23 |
